Reference: patent US20240327364A1, “THERAPEUTIC TARGETING OF GPR68 TO INDUCE FERROPTOSIS” (University Of Maryland, Baltimore, priority 2023, published 2024)

Experiments:
ADCK3 = biological target: T1, ADCK3 (Homo sapiens, UniProt Q8NI60); assay: KinomeScan; format: binding; settings: read-out: % Control
T1 construct: purchased DiscoveRx (Fremont, CA)

AKT1 = biological target: T2, AKT1 (Homo sapiens, UniProt P31749); assay: KinomeScan; format: binding; settings: read-out: % Control
T2 construct: purchased DiscoveRx (Fremont, CA)
T2 sequence (P31749 whole entry): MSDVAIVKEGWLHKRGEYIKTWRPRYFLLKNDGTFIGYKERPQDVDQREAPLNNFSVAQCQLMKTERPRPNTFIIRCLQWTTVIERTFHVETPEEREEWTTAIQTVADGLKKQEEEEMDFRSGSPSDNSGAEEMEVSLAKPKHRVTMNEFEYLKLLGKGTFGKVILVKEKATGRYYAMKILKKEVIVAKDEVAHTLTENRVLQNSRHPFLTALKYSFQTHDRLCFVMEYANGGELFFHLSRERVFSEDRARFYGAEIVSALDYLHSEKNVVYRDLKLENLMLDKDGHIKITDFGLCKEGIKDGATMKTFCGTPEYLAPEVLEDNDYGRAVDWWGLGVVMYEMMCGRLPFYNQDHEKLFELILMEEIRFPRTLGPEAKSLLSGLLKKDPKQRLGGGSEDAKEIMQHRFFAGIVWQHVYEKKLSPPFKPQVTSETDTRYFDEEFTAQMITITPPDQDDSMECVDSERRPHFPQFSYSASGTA

ANKK1 = biological target: T3, ANKK1 (Homo sapiens, UniProt Q8NFD2); assay: KinomeScan; format: binding; settings: read-out: % Control
T3 construct: purchased DiscoveRx (Fremont, CA)

CDKL1 = CDKL1 (Homo sapiens, UniProt Q00532); assay: KinomeScan; format: binding; settings: read-out: % Control
Chain of CDKL1 (Q00532 whole entry): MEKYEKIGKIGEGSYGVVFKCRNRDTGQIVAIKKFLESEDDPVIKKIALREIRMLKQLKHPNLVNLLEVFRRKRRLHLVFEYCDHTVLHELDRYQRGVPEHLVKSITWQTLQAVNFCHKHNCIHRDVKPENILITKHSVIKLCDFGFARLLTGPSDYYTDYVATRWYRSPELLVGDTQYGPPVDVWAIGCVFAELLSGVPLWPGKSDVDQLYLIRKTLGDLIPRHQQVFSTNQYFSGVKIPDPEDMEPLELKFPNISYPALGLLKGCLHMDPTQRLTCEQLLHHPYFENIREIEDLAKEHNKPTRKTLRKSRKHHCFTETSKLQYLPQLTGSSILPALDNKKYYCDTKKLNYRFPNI

CLK4 = CLK4 (Homo sapiens, UniProt Q9HAZ1); assay: KinomeScan; format: binding; settings: read-out: % Control
CSNK1A1L = CSNK1A1L (Homo sapiens, UniProt Q8N752); assay: KinomeScan; format: binding; settings: read-out: % Control
Chain of CSNK1A1L (Q8N752 whole entry): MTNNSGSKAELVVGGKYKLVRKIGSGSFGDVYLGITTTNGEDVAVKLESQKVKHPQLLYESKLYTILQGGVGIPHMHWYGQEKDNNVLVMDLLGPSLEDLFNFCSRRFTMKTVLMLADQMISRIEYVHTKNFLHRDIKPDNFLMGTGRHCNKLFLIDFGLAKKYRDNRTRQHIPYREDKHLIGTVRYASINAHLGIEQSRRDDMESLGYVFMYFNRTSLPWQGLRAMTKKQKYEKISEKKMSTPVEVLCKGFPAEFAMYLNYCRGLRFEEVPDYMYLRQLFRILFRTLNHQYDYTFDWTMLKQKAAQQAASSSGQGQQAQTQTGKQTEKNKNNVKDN

KIT = biological target: T4, KIT (Homo sapiens, UniProt P10721); assay: KinomeScan; format: binding; settings: read-out: % Control
T4 construct: purchased DiscoveRx
T4 sequence (P10721 26-976): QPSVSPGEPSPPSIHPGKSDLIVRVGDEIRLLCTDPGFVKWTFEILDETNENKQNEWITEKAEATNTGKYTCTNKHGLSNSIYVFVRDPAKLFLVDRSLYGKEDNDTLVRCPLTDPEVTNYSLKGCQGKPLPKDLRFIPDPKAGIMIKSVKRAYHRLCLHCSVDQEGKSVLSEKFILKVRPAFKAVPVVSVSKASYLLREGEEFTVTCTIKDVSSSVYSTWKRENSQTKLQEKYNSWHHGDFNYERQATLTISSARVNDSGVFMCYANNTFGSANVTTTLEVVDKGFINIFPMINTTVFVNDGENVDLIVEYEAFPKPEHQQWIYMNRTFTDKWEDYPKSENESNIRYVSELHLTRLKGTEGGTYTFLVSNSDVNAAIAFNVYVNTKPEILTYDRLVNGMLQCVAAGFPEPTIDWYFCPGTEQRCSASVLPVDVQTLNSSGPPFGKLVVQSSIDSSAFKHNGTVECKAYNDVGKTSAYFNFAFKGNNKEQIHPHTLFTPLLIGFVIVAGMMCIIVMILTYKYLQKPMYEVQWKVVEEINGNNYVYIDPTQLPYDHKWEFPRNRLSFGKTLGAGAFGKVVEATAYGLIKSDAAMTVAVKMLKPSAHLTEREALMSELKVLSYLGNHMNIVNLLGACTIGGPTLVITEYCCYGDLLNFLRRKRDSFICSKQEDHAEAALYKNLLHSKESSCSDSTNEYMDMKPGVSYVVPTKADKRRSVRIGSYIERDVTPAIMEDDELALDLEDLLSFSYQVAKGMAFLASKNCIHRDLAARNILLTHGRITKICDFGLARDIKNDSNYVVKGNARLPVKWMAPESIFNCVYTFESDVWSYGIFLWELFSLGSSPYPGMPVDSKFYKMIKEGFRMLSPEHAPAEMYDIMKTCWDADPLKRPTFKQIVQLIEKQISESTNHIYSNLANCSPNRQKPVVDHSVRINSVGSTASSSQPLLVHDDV

MAK = biological target: T5, MAK (Homo sapiens, UniProt P20794); assay: KinomeScan; format: binding; settings: read-out: % Control
T5 construct: purchased DiscoveRx
T5 sequence (P20794 whole entry): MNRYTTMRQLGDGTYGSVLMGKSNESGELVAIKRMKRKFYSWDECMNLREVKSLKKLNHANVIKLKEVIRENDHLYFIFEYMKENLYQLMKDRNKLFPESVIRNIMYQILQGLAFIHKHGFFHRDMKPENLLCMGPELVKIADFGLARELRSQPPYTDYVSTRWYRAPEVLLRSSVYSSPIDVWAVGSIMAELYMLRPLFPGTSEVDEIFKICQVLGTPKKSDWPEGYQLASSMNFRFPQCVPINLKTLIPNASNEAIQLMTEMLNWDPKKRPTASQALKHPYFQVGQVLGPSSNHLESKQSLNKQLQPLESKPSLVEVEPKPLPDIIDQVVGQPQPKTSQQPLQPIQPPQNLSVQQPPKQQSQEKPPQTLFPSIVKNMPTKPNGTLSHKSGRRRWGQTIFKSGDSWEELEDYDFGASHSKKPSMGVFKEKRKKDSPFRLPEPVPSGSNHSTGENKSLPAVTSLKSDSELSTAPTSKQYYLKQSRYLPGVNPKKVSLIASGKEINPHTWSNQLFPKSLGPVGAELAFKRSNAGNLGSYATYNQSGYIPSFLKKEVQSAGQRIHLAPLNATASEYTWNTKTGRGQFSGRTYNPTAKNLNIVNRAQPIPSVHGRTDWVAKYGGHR

MEK2 = biological target: T6, MEK2 (Homo sapiens, UniProt P36507); assay: KinomeScan; format: binding; settings: read-out: % Control
T6 construct: purchased DiscoveRx (Fremont, CA)
T6 sequence (P36507 whole entry): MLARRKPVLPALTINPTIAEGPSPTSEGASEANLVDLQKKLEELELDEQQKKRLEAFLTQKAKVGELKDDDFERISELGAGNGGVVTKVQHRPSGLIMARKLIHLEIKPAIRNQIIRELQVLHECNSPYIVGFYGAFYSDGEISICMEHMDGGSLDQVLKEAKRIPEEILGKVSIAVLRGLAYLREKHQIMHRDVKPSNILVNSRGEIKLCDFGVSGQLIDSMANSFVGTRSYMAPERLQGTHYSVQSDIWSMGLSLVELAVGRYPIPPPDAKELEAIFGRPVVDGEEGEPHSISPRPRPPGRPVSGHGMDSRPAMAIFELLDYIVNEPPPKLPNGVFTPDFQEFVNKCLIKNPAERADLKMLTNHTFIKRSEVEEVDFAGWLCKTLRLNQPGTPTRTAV

MINK = biological target: T7, MINK (Homo sapiens, UniProt Q8N4C8); assay: KinomeScan; format: binding; settings: read-out: % Control
T7 construct: purchased DiscoveRx

MTOR = biological target: T8, MTOR (Homo sapiens, UniProt P42345); assay: KinomeScan; format: binding; settings: read-out: % Control
T8 construct: purchased DiscoveRx

PAK2 = biological target: T9, PAK2 (Homo sapiens, UniProt Q13177); assay: KinomeScan; format: binding; settings: read-out: % Control
T9 construct: purchased DiscoveRx

PIK3CA = biological target: T10, PIK3CA (Homo sapiens, UniProt P42336); assay: KinomeScan; format: binding; settings: read-out: % Control
T10 construct: purchased DiscoveRx (Fremont, CA)

PRKD3 = biological target: T11, PRKD3 (Homo sapiens, UniProt O94806); assay: KinomeScan; format: binding; settings: read-out: % Control
T11 construct: purchased DiscoveRx (Fremont, CA)

[1] = biological target: T12, RSK1(Kin.Dom.1-N-terminal) (Homo sapiens, UniProt Q15418); assay: KinomeScan; format: binding; settings: read-out: % Control
T12 construct: RSK1(Kin.Dom.1-N-terminal); purchased DiscoveRx (Fremont, CA)

TRPM6 = biological target: T13, TRPM6 (Homo sapiens, UniProt Q9BX84); assay: KinomeScan; format: binding; settings: read-out: % Control
T13 construct: purchased DiscoveRx (Fremont, CA)

A2B = biological target: T14, A2B (Homo sapiens, UniProt P29275); assay: GPCR Profiler; format: cell-based
T14 construct: host or cells: Chem-1 cells with promiscuous Gα15
T14 sequence (P29275 whole entry): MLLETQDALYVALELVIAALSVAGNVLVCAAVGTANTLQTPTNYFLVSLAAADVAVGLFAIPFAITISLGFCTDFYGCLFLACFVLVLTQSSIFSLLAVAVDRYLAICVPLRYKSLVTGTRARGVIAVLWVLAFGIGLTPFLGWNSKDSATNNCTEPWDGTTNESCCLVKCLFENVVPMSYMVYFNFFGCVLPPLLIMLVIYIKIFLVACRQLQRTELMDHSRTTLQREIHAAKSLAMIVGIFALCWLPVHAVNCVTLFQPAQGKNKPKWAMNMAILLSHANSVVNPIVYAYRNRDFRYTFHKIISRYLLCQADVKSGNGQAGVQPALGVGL

LPA3 = biological target: T15, LPA3 (Homo sapiens, UniProt Q9UBY5); assay: GPCR Profiler; format: cell-based
T15 construct: host or cells: Chem-1 cells with promiscuous Gα15
T15 sequence (Q9UBY5 whole entry, species assumed): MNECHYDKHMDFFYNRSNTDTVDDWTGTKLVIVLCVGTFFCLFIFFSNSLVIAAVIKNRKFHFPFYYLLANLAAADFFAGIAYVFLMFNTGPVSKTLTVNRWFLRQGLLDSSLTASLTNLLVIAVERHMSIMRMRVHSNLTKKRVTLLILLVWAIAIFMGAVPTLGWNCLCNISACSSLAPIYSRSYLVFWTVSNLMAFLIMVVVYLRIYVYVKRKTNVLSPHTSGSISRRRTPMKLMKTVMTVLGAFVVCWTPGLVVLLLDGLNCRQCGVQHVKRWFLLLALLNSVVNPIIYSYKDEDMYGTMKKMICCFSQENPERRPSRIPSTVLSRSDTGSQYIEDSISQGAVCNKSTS

PAC1 = biological target: T16, PAC1 (Homo sapiens, UniProt P41586); assay: GPCR Profiler; format: cell-based
T16 construct: host or cells: Chem-1 cells with Gα15
T16 sequence (P41586 21-468): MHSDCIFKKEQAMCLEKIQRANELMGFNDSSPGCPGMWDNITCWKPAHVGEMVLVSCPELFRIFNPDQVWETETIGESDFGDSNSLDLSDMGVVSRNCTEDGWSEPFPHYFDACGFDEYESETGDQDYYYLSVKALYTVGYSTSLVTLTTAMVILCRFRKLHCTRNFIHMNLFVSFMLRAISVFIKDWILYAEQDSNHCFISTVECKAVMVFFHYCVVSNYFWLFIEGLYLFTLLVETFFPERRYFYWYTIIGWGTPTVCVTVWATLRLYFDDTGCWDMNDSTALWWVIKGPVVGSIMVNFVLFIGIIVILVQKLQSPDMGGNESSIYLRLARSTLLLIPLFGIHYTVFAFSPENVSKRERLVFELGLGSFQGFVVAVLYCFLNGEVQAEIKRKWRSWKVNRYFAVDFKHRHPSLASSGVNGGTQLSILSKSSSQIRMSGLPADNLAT

Trypsin activated PARS = assay: GPCR Profiler; format: cell-based
GL261Luc = assay: Cell Titer-Glo viability, Glioblastoma; format: cell-based
Experimental: (§1) OGM2 kills wide variety of cancer cell types. Cell sensitivity can be classified in to Very Sensitive (LC50<2 μM), Sensitive (LC50=2 to 10 μM), Mildly Sensitive (LC50>10 μM), and Refractory (no killing at 10 μM). The listed established cell were incubated with OGM2 at 2 μM or 10 μM for 72 hours under standard cell culture conditions, and relative cell number was assessed using Cell Titer-Glo Luminescent Cell Viability Assay (Promega™) following the manufacturer's instructions. Luminescence was determined using a Cytation 5 reader and Gen5 software package (BioTek™).
(§2) Cancer cells, which are very sensitive to killing by OGM2 (LCs <2 μM), with reported mRNA expression of GPR68 and the related proton sensing receptor GPR4. LC50's (concentrations causing 50% lethality) were determined using CellTiter-Glo (Promega™, G7570). Cells were plated in 12-well plates (CELLTREAT Scientific Products, 229112) in 1 ml of DMEM with high glucose, GlutaMAX, HEPES, or RPMI 1640 with Penicillin-Streptomycin (ThermoFisher™, 10564029, 11875119 and 15140122) and 10% FBS. Cells were incubated overnight at 37° C. in 5% CO2. Then 1 mL of fresh media was added with DMSO, OGM, or positive control (Erastin; APExBIO Technology, LLC, B1524) and cells incubated for 3 days. On the third day, all media was removed, cells were rinsed with 1×PBS, PBS was removed, and 200 μL of 1× Passive Lysis Buffer (Promega™, E1941) was added to each well. […]. Subsequently, 20 μL of lysate was added to 100 μL CellTiter-Glo™ reagent on a LUMITRAC 200 plate (Greiner™ bio-one, 82050-726). Plates were briefly spun down and read on a GloMax-Multi Detection System (Promega™).
(§3) The cells listed in the tables above were incubated with OGM2 at 2 μM or 10 μM for 72 hours under standard cell culture conditions, and relative cell number was assessed using Cell Titer-Glo Luminescent Cell Viability Assay (Promega™) following the manufacturer's instructions. Luminescence was determined using a Cytation 5 reader and Gen5 software package (BioTek™). RNA expression of GPR68 and GPR4 in the corresponding cancer cell lines are listed, according to the publicly available The Human Protein Atlas version 22.0 and Ensembl version 103.38 (see proteinatlas.org). The consensus normalized expression value (“nTPM”=normalize transcript per million) was calculated as the maximum nTPM value for each gene in the two data sources.

KR-158-luc = assay: Cell Titer-Glo viability, Glioblastoma; format: cell-based
Experimental: as §1, §2, §3

U-138 MG = assay: Cell Titer-Glo viability, Glioblastoma; format: cell-based; settings: 72 hours
Experimental: as §1, §2, §3

U-87 MG = assay: Cell Titer-Glo viability, Glioblastoma; format: cell-based; settings: 72 hours
Experimental: as §1, §2, §3

T1 sequence (Q8NI60 163-647): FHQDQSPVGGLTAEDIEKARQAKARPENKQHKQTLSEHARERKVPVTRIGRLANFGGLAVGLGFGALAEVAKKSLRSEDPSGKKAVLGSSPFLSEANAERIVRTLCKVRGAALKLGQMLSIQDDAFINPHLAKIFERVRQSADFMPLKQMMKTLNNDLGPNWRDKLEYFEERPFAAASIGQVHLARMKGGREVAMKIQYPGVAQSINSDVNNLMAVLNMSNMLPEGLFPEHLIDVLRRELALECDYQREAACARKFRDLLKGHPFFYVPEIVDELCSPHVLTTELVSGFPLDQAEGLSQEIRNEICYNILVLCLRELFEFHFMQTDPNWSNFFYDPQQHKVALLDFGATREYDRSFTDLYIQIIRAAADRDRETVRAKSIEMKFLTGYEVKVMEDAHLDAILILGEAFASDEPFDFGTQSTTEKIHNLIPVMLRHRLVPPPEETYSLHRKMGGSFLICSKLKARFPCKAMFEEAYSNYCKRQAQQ

CCc1ccc2c(c1)C1(NN=C(c3cccc4ccccc34)S1)C(=O)N2 (centres unmarked) [OGM1, 5-ethyl-5′-naphthalen-1-ylspiro[1H-indole-3,2′-3H-1,3,4-thiadiazole]-2-one]
remaining binding at 10 µM (ADCK3): 100%
remaining binding at 10 µM (AKT1): 78%
remaining binding at 10 µM (ANKK1): 100%
remaining binding at 10 µM (CDKL1): 88%
remaining binding at 10 µM (CLK4): 88%
remaining binding at 10 µM (CSNK1A1L): 100%
remaining binding at 10 µM (KIT): 79%
remaining binding at 10 µM (MAK): 90%
remaining binding at 10 µM (MEK2): 94%
remaining binding at 10 µM (MINK): 97%
remaining binding at 10 µM (MTOR): 86%
remaining binding at 10 µM (PAK2): 72%
remaining binding at 10 µM (PIK3CA): 100%
remaining binding at 10 µM (PRKD3): 100%
remaining binding at 10 µM [1]: 78%
remaining binding at 10 µM (TRPM6): 80%
Antagonism (A2B; 10 uM): −12.8
Agonism (A2B; 12.5 uM): 4.4
Antagonism (LPA3; 10 uM): 1.1
Agonism (LPA3; 12.5 uM): 0.3
Antagonism (PAC1; 10 uM): 5.8
Agonism (PAC1; 12.5 uM): 0.9
Antagonism (Trypsin activated PARS; 10 uM): 18.2
Agonism (Trypsin activated PARS; 12.5 uM): 0

CCc1ccc2c(c1)C1(NN=C(c3ccccc3)S1)C(=O)N2 (centres unmarked) [OGM2]
Class (GL261Luc): Very Sensitive (Very Sensitive (LC50<2 μM))
% Survival 2 μM OGM (GL261Luc; 72 hours): 1.8%
% Survival 10 μM OGM (GL261Luc; 72 hours): 0.1%
CC50 (GL261Luc; Mus musculus, GL261-Luc, 72 hours, read-out: LC50 (the source's name)): < 2 µM
Class (KR-158-luc): Very Sensitive (Very Sensitive (LC50<2 μM))
% Survival 2 μM OGM (KR-158-luc; 72 hours): 11.4%
% Survival 10 μM OGM (KR-158-luc; 72 hours): 4.7%
CC50 (KR-158-luc; Mus musculus, 72 hours, read-out: LC50 (the source's name)): < 2 µM
% Survival 2 μM OGM (U-138 MG): 40.3%
% Survival 10 μM OGM (U-138 MG): 35.0%
CC50 (U-138 MG; Homo sapiens, U138-MG, read-out: LC50 (the source's name)): < 2 µM
% Survival 2 μM OGM (U-87 MG): 21.3%
% Survival 10 μM OGM (U-87 MG): 10.1%
CC50 (U-87 MG; Homo sapiens, U-87 MG, read-out: LC50 (the source's name)): < 2 µM
